According to patent US20250145589A1, “PYRIDINE DERIVATIVE AND USE THEREOF” (SICHUAN HUIYU PHARMACEUTICAL CO., LTD., priority 2021, published 2025):
Like-named read-outs stand apart in the source and are kept apart here.

Experiments:
[1] = target: PI3Kδ (Homo sapiens (Human), UniProt O00329); experiment: Inhibition of PI3Kδ efficacy assay (ADP-Glo kinase assay); assay type: biochemical; conditions: read-out: PI3Kδ inhibitory activity (IC50)
Procedure, shortened: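 Luminescent ADP-Glo readout of PI3Kδ: after a 60 min RT reaction with PI/ATP substrate, ATP depletion (40 min) and ADP detection (40 min) steps followed. Compounds tested as eight five-fold serial dilutions; inhibition rates fitted to log(inhibitor) vs. response, variable slope, for IC50.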

[2] = target: KRAS^G12C-SOS1 (Homo sapiens (Human), UniProt P01116, G12C); experiment: HTRF KRAS G12C/SOS1 binding assay; conditions: Table 5
Procedure, shortened: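 Compound was serially diluted five-fold over eight points, with a 2 mM DMSO stock. After anti-tag-Tb3+ and anti-tag-XL665 were added, plates were incubated 3 h at 4 °C and read by HTRF (ex 337 nm, em 620/665 nm ratio). IC50 values come from four-parameter variable-slope fits.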

[3] = test system: MIA PaCa-2 cells (KRAS G12C mutant); experiment: MIA PaCa-2 cell anti-proliferation (CellTiter-Glo); assay type: cell-based; conditions: MIA Paca-2 cells, 3 days, Table 7, read-out: MIA PaCa-2 (IC50)
Procedure, shortened: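 Viable-cell luminescence (CellTiter-Glo, ≥30 min at 25 °C) measured after a 3-day, 37 °C exposure to compounds at 9 points, 4-fold spaced, in DMEM containing 10% FBS plus 2.5% horse serum. IC50 derived versus no-inhibitor wells.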

[4] = test system: NCI-H358-AMGR drug-resistant cell line; experiment: NCI-H358-AMGR drug-resistant cell proliferation inhibitory activity test; assay type: cell-based; conditions: NCI-H358-AMGR drug-resistant cells, 3 days incubation, CellTiter-Glo
Procedure, shortened: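 Luminescent CellTiter-Glo read-out after 3-day, 37° C compound exposure (8 points, 5-fold series) of AMG510-resistant NCI-H358 cells plated at 4×10^3 per well.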

[5] = test system: NCI-H358 cells (KRAS G12C mutant); experiment: NCI-H358 cell proliferation inhibition (CellTiter-Glo); assay type: cell-based; conditions: read-out: NCI-H358 (IC50)
[6] = Homo sapiens, NCI-H358, 72 h, H358 cells (G12C mutation), 3 days, Table 6

KRAS^G12C-SOS1, sequence (P01116-2 other isoform, or with tags, fused parts or gaps G12C): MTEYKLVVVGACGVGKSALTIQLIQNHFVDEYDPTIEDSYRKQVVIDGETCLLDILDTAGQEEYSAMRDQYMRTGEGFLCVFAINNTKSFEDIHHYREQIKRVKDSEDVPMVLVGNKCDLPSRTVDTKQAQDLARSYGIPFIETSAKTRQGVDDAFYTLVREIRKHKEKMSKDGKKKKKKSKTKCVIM
PI3Kδ, sequence (O00329 whole entry): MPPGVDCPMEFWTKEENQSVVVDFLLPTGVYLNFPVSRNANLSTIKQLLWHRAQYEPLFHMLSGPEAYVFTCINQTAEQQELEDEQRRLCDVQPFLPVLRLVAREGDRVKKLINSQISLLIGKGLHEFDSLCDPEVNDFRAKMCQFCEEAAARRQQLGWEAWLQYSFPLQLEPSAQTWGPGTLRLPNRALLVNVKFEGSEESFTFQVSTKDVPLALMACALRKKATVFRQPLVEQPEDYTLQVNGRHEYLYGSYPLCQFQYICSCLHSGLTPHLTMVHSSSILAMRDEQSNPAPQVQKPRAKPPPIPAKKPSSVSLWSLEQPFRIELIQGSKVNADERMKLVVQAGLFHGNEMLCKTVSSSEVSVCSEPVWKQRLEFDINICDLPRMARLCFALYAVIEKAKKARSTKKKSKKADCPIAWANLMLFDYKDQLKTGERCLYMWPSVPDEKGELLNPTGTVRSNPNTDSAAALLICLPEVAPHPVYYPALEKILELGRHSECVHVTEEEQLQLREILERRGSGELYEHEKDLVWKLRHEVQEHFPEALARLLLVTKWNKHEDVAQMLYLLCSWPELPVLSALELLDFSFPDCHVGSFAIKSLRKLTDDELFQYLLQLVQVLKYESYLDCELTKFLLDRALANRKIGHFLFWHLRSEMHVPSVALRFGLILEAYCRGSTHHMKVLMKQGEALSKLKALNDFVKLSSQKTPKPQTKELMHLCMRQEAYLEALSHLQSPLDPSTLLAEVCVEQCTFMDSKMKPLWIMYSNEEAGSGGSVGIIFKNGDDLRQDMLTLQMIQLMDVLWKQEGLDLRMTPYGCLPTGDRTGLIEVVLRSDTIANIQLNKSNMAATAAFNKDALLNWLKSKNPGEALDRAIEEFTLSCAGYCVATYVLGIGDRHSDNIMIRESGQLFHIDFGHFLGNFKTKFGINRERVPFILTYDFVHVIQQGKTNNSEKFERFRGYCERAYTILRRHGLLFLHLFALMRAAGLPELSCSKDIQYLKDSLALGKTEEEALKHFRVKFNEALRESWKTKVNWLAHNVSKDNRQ
PI3Kδ, sequence (P27986 whole entry partner): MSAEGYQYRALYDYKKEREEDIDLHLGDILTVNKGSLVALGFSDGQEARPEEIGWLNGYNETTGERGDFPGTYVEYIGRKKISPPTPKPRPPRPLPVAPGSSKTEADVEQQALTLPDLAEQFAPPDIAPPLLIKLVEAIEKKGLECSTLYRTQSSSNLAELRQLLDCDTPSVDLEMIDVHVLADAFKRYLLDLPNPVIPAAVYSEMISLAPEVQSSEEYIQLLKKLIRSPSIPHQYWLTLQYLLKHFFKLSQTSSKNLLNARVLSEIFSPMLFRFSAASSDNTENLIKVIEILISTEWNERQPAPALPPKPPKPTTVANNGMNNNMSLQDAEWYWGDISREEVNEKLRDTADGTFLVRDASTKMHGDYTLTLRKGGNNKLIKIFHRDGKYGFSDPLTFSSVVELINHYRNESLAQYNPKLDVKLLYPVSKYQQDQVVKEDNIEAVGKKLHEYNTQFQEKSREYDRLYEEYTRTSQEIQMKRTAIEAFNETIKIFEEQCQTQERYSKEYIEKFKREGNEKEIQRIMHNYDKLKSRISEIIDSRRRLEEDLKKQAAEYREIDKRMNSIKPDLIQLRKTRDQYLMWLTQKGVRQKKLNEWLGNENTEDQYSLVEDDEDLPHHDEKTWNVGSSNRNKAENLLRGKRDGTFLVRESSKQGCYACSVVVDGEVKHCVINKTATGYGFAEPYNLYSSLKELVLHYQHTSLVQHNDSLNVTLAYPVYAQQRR

`COc1ncc(-c2ccc3ncnc(N4CCN(C(=O)/C=C/C(C)=O)CC4)c3c2)cc1NS(=O)(=O)c1cc(F)ccc1F` [Example 94, (E)-2,5-difluoro-N-(2-methoxy-5-(4-(4-(4-oxopent-2-enoyl)piperazin-1-yl)quinazolin-6-yl)pyridin-3-yl)benzenesulfonamide] gave an IC50 ([1]; Table 2) of 56.7 nM, an IC50 [2] of 189 nM and an IC50 ([3]; Homo sapiens, 72 h) of 65.9 nM. For the same compound, the IC50 ([4]; 72 h) was 65.2 nM and the IC50 [5, 6] was 62.5 nM.

With `COc1ncc(-c2ccc3ncnc(N4CCC5(CC4)CN(C(=O)/C=C/C(C)=O)C5)c3c2)cc1NS(=O)(=O)c1ccc(F)cc1F` [Example 20, (E)-2,4-difluoro-N-(2-methoxy-5-(4-(2-(4-oxopent-2-enoyl)-2,7-diazaspiro[3.5]nonan-7-yl)quinazolin-6-yl)pyridin-3-yl)benzenesulfonamide] the IC50 ([1]; Table 1) was 212 nM, the IC50 [2] was 239 nM and the IC50 ([3]; Homo sapiens, 72 h) was 64.1 nM. For the same compound, the IC50 ([4]; 72 h) was 48.7 nM and the IC50 [5, 6] was 26.2 nM.

For `COc1ncc(-c2ccc3ncnc(N4CCC5(CN(C(=O)/C=C/C(C)=O)C5)C4)c3c2)cc1NS(=O)(=O)c1c(F)cccc1F` [Example 42], the IC50 ([1]; Table 2) was 16.5 nM, the IC50 [2] was 109 nM and the IC50 [3] was 284 nM. It also gave an IC50 [4] of 132 nM and an IC50 [5] of 79 nM.

For `COc1ncc(-c2ccc3ncnc(N4CCN(C(=O)/C=C/C(C)=O)CC4)c3n2)cc1NS(=O)(=O)c1cc(F)ccc1F` [Example 217, (E)-2,5-difluoro-N-(2-methoxy-5-(4-(4-(4-oxopent-2-enoyl)piperazin-1-yl)pyrido[3,2-d]pyrimidin-6-yl)pyridin-3-yl) benzene-sulfonamide], the IC50 ([1]; Table 4) was 10.6 nM, the IC50 [2] was 207 nM and the IC50 ([3]; Homo sapiens, 72 h) was 21.1 nM. The IC50 ([4]; 72 h) was 32.1 nM and the IC50 [5, 6] was 27 nM.

`COc1ncc(-c2ccc3ncnc(N4CC5CCC(C4)N5C(=O)/C=C/C(C)=O)c3c2)cc1NS(=O)(=O)c1c(F)cccc1F` [Example 145, 2,6-difluoro-N-(2-methoxy-5-(4-(8-((E)-4-oxopent-2-enoyl)-3,8-diazabicyclo[3.2.1]octan-3-yl)quinazolin-6-yl)pyridin-3-yl)benzenesulfonamide] was tested, and the IC50 ([1]; Table 4) was 23.8 nM, the IC50 [2] was 200 nM and the IC50 ([3]; Homo sapiens, 72 h) was 77.2 nM. It also gave an IC50 ([4]; 72 h) of 223 nM and an IC50 [5, 6] of 36.2 nM.

Work on `COc1ncc(-c2ccc3ncnc(N4CCN(C(=O)/C=C/C(C)=O)CC4)c3c2)cc1NS(=O)(=O)c1ccc(F)cc1Cl` [Example 169, (E)-2-chloro-4-fluoro-N-(2-methoxy-5-(4-(4-(4-oxopent-2-enoyl)piperazin-1-yl)quinazolin-6-yl)pyridin-3-yl)benzenesulfonamide] yielded an IC50 ([1]; Table 4) of 18.9 nM, an IC50 [2] of 249 nM and an IC50 ([3]; Homo sapiens, 72 h) of 31.7 nM. It also gave an IC50 ([4]; 72 h) of 36.2 nM and an IC50 [5, 6] of 5.7 nM.

`COc1ncc(-c2ccc3ncnc(N4CC5CCC4CN5C(=O)/C=C/C(C)=O)c3c2)cc1NS(=O)(=O)c1ccc(F)cc1F` (stereo not drawn) [Example 158, (E)-2,4-difluoro-N-(2-methoxy-5-(4-(5-(4-oxopent-2-enoyl)-2,5-diazabicyclo[2.2.2]octan-2-yl)quinazolin-6-yl)pyridin-3-yl)benzenesulfonamide] was tested, and the IC50 ([1]; Table 4) was 34.6 nM, the IC50 [2] was 191 nM and the IC50 ([3]; Homo sapiens, 72 h) was 140 nM. For the same compound, the IC50 ([4]; 72 h) was 155 nM and the IC50 [5, 6] was 55.2 nM.

In the case of `COc1ncc(-c2ccc3ncnc(N4CCN(C(=O)/C=C/C(C)=O)[C@@H](CC#N)C4)c3c2)cc1NS(=O)(=O)c1c(F)cccc1F` [Example 116, (S,E)-N-(5-(4-(3-(cyanomethyl)-4-(4-oxopent-2-enoyl)piperazin-1-yl)quinazolin-6-yl)-2-methoxypyridin-3-yl)-2,6-difluorobenzenesulfonamide], the IC50 ([1]; Table 2) is reported as 27 nM, the IC50 [2] is reported as 1570 nM and the IC50 ([3]; Homo sapiens, 72 h) is reported as 107 nM. It also gave an IC50 ([4]; 72 h) of 232 nM and an IC50 [5, 6] of 95.9 nM.

`COc1ncc(-c2ccc3ncnc(N4CCN(C(=O)/C=C/C(C)=O)CC4)c3c2)cc1NS(=O)(=O)c1ccc(Cl)cc1F` [Example 177, (E)-4-chloro-2-fluoro-N-(2-methoxy-5-(4-(4-(4-oxopent-2-enoyl)piperazin-1-yl)quinazolin-6-yl)pyridin-3-yl)benzene-sulfonamide] gave an IC50 ([1]; Table 4) of 19.1 nM, an IC50 [2] of 246 nM and an IC50 ([3]; Homo sapiens, 72 h) of 25.9 nM. For the same compound, the IC50 ([4]; 72 h) was 48.9 nM and the IC50 [5, 6] was 36.1 nM.
